“And” between values parts separate entries of the source, which are not always exact repeats. Identical values can stand only once.
Legend:
HIF1α protein = experiment: Western blot of HIF1α in A375 and A2780 cells at 20% or 1% O2; assay type: cell-based, human; conditions: 25 nM, 20% or 1% O2, 24 h
Protocol: Fig. 7 NHWD-870 inhibited CSF1 expression through suppressing BRD4 and HIF1α in tumor cells. a, b Representative western blot analysis of control (Ctrl) and BRD4 knockout (KO) A375 and A2780 cells exposed to 20% or 1% O2 for 24 hours. Selected from three independent experiments. c, d Representative western blot analysis of A375 and A2780 cells treated with DMSO or 25 nM NHWD-870 and exposed to 20% or 1% O2 for 24 h. Selected from three independent experiments. e Relative HIF1 luciferase reporter activity in control (Ctrl), BRD4 knockout (KO), or NHWD-870 treated A375 and A2780 cells exposed to 20% or 1% O2 for 24 h. […] NHWD-870 inhibits the proliferation and survival of TAMs partly by inhibiting BRD4 activity, HIF1α expression, and CSF1 secretion by tumor cells, and downregulating CSF1R mediated ERK and PI3K/AKT signaling in TAMs. p values were calculated using two-tailed, unpaired t tests in this figure. *p < 0.05; **p < 0.01; ***p < 0.001. […]
of treatment, 10 μl AlamarBlue reagent (0.3 mg/ml) was added to each well, and after 18h, the florescence intensity in each well was measured using a top-reading fluorescent plate reader with excitation at 530 nm and emission at 590 nm.
4. […] Supernatants were collected and determined with a Bradford Protein Assay kit (Bio-Rad, Hercules, CA). […]
every week. […] Colony numbers were calculated with imageJ version

A2780 ovarian tumors = experiment: A2780 ovarian subcutaneous tumor growth; assay type: in vivo, mouse; conditions: for Tumor volume: Fig.3b a2780, 3mg/kg p.o. QD x 15D, n=5, individual animals, in mm³ (unit assumed)
Description: PO, oral administration; QD, once daily; BID, twice daily. b–d Tumor growth curves for A2780 ovarian tumor (n = 5) (b), TMD8 large B cell lymphoma (n = 6) (c), and B16F10 melanoma (n = 5) (d) bearing mice treated with the indicated compounds once daily for 11-21 days. e, f Tumor growth curves for A375 melanoma (n = 6) (e), and patient-derived xenograft (PDX) of melanoma (n = 5) (f) bearing mice treated with the indicated compounds once daily (5 days on, 2 days off) for 21 days. For d–f, NHWD-870 used is NHWD-870-HCl synthesized using Suzuki coupling route. Data are presented as mean ± SEM in (a, b, d, f) and mean + SEM in (c, e). p values were calculated using two-tailed, unpaired t tests. *p < 0.05; **p < 0.01; ***p < 0.001. Source data are provided as a Source Data file.
4–6 weeks old female BALB/c nude mice were used for most experiments, with the exception of 6–8 weeks old female C57BL/6 mice were used for B16F10 experiments, and 6–8 weeks old male BALB/c nude mice and SD rats were used for pharmacokinetic experiments. All animals were purchased from Shanghai SIPPR-Bk Lab Animal Co., Ltd. All animals were housed under a regimen of 12 h light/12 h dark cycles and specific pathogen-free conditions. 5×10^6 NCI-H526, ES-2, MDA-MB231, A2780, A375, B16F10, and TMD-8 cells (0.1 ml) were injected subcutaneously into female nude mice. The melanoma patient-derived xenograft model was derived from a human melanoma sample (BRAF, NARS and NF1 wild type, and p53 mutant) removed from a patient in Xiangya Hospital. Surgically removed tumor fragments were implanted subcutaneously into female NSG mice. When the tumors grew to ~1000 mm^3, they were harvested and cryopreserved or immediately re-implanted for expansion or experiments. Mouse body weight and tumor sizes were measured every 3 days. Once the tumors grew to 150–200 mm^3, mice were treated with the compounds as described in the Figures. 1 × 10^6 A2780 cells (1 ml) were injected into the abdominal cavity of nude mice. Ascitic volume and tumor weight were measured by an electronic balance. All the procedures were evaluated and approved by the Institutional Animal Care and Use Committee of Central South University and Yale University.

`Cc1nnn(C)c1-c1cnc2c3c4cnn(C)c4ccc3n([C@H](c3ccccc3)C3CCOCC3)c2c1` [NHWD-870] was tested, and the “HIF1α protein (western blot)” value (HIF1α protein) was “decreased HIF1α protein”, the “effect on tumor growth” value (A2780 ovarian tumors; A2780 ovarian tumors, oral once daily) was “strong tumor regression activity” and the Tumor volume (A2780 ovarian tumors; day 3) was 437 and 185 and 30 and 119 and 617. The Tumor volume (A2780 ovarian tumors; day 6) was 183 and 151 and 27 and 79 and 405, the Tumor volume (A2780 ovarian tumors; day 9) was 150 and 191 and 22 and 66 and 371 and the Tumor volume (A2780 ovarian tumors; day 12) was 110 and 138 and 20 and 56 and 270. For the same compound, the Tumor volume (A2780 ovarian tumors; day 15) was 91 and 72 and 18 and 40 and 78.
